Several values for one entry are separate records, joined by “and”; a condition that tells them apart may be missing. Identical values can stand only once.
What was measured:
Experiment in all cases: LanthaScreen Eu Kinase Binding Assay, panel of 486 biochemical kinase assays
[1] = target: various kinases (Homo sapiens, UniProt O00238); conditions: BMPR1B (ALK6)
[2] = target: various kinases (Homo sapiens, UniProt O14936); conditions: CASK
[3] = target: T1, various kinases (Homo sapiens, UniProt O75385); conditions: kinase ULK1; LanthaScreen Binding
T1 sequence (O75385 1-1050): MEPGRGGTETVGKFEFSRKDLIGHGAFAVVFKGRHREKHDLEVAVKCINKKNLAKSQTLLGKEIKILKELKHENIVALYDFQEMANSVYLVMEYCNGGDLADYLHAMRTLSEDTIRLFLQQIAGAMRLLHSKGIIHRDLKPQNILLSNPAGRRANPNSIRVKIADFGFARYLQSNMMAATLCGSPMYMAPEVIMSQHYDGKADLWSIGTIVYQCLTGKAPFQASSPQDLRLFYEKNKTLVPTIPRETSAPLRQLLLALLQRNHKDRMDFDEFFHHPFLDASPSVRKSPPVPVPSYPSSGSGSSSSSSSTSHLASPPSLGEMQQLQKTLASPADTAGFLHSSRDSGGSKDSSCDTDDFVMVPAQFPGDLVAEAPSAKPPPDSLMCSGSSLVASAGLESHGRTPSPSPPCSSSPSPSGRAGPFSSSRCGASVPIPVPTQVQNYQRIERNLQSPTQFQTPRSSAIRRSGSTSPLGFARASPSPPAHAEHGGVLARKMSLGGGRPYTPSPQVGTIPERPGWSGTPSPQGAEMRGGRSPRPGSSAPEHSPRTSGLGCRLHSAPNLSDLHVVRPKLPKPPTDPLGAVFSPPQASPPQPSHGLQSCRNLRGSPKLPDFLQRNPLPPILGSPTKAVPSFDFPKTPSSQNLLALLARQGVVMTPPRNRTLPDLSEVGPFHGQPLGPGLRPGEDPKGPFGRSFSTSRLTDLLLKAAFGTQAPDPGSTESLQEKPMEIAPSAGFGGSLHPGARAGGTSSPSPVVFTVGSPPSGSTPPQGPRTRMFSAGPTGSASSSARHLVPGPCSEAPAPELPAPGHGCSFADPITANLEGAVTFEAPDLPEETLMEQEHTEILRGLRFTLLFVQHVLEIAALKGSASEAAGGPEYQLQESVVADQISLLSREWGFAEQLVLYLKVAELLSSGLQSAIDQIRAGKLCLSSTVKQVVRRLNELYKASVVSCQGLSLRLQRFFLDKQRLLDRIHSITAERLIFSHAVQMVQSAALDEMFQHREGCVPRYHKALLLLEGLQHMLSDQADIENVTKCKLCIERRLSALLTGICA

[4] = target: various kinases (Homo sapiens, UniProt O75460); conditions: ERN1
[5] = target: various kinases (Homo sapiens, UniProt P06241); conditions: FYN A
[6] = target: various kinases (Homo sapiens, UniProt P10721, A829P); conditions: KIT A829P
[7] = target: various kinases (Homo sapiens, UniProt P10721, N822K); conditions: KIT N822K
[8] = target: various kinases (Homo sapiens, UniProt P10721, V654A); conditions: KIT V654A
[9] = target: various kinases (Homo sapiens, UniProt P11362, V561M); conditions: FGFR1 V561M
[10] = target: various kinases (Homo sapiens, UniProt P22694); conditions: kinase PRKACB (PRKAC beta); LanthaScreen Binding
[11] = target: various kinases (Homo sapiens, UniProt P37173); conditions: kinase TGFBR2; LanthaScreen Binding
[12] = target: various kinases (Homo sapiens, UniProt P45983); conditions: MAPK8 (JNK1)
[13] = target: various kinases (Homo sapiens, UniProt P52564, S207E/T211E); conditions: MAP2K6 (MKK6) S207E T211E
[14] = target: various kinases (Homo sapiens, UniProt Q13163); conditions: MAP2K5 (MEK5)
[15] = target: various kinases (Homo sapiens, UniProt Q15569); conditions: kinase TESK1; LanthaScreen Binding
[16] = target: various kinases (Homo sapiens, UniProt Q16513); conditions: kinase PKN2 (PRK2); LanthaScreen Binding
[17] = target: various kinases (Homo sapiens, UniProt Q8TD08); conditions: MAPK15 (ERK7)
[18] = target: various kinases (Homo sapiens, UniProt Q96GX5); conditions: MASTL
[19] = target: various kinases (Homo sapiens, UniProt Q9H093); conditions: NUAK2
[20] = target: various kinases (Homo sapiens, UniProt Q9H4A3); conditions: kinase WNK1; LanthaScreen Binding
[21] = target: various kinases (Homo sapiens, UniProt Q9NY57); conditions: kinase STK32B (YANK2); LanthaScreen Binding
[22] = target: various kinases (Homo sapiens, UniProt Q9NYL2); conditions: kinase ZAK; LanthaScreen Binding
[23] = target: various kinases (Homo sapiens, UniProt Q9Y2H1); conditions: kinase STK38L (NDR2); LanthaScreen Binding
Chain of various kinases (Homo sapiens, UniProt Q9Y2H1) (Q9Y2H1 whole entry): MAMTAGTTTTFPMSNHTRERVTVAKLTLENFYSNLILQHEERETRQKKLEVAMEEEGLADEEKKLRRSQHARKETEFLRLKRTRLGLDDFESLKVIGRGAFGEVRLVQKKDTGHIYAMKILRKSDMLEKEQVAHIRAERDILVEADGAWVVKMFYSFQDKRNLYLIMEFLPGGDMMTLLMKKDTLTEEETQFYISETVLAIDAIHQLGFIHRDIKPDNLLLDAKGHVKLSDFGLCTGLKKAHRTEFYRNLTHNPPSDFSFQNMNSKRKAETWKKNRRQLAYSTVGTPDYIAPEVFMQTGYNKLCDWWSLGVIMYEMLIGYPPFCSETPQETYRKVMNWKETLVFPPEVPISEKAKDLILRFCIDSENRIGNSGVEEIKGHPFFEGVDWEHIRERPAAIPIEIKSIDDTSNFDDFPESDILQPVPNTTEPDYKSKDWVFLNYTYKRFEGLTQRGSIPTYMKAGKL

Chain of various kinases (Homo sapiens, UniProt Q9NY57) (Q9NY57 whole entry): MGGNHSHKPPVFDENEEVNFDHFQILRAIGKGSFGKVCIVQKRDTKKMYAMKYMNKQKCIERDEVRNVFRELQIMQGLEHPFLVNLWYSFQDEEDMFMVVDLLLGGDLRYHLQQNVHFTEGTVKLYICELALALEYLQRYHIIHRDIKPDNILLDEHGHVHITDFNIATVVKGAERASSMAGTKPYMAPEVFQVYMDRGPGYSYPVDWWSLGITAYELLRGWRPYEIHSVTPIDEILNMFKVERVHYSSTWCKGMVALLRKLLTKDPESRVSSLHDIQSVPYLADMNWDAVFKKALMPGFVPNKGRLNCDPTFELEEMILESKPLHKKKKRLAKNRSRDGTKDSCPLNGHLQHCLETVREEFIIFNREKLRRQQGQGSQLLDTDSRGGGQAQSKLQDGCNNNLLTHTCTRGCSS
Chain of various kinases (Homo sapiens, UniProt P37173) (P37173 23-567): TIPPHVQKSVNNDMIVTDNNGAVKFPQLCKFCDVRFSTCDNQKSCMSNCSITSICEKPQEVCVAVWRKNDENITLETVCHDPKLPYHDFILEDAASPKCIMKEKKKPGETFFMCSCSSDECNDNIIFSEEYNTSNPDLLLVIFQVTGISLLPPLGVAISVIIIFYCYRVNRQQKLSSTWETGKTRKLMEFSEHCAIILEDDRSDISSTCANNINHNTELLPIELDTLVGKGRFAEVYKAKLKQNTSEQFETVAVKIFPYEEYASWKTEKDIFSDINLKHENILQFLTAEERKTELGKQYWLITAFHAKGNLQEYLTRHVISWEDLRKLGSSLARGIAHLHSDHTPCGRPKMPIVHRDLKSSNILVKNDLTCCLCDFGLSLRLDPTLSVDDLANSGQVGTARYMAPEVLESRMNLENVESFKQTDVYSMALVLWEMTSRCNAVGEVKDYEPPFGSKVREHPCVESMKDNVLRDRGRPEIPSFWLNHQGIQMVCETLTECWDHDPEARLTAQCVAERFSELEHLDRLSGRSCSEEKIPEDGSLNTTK
Chain of various kinases (Homo sapiens, UniProt Q9H4A3) (Q9H4A3 whole entry): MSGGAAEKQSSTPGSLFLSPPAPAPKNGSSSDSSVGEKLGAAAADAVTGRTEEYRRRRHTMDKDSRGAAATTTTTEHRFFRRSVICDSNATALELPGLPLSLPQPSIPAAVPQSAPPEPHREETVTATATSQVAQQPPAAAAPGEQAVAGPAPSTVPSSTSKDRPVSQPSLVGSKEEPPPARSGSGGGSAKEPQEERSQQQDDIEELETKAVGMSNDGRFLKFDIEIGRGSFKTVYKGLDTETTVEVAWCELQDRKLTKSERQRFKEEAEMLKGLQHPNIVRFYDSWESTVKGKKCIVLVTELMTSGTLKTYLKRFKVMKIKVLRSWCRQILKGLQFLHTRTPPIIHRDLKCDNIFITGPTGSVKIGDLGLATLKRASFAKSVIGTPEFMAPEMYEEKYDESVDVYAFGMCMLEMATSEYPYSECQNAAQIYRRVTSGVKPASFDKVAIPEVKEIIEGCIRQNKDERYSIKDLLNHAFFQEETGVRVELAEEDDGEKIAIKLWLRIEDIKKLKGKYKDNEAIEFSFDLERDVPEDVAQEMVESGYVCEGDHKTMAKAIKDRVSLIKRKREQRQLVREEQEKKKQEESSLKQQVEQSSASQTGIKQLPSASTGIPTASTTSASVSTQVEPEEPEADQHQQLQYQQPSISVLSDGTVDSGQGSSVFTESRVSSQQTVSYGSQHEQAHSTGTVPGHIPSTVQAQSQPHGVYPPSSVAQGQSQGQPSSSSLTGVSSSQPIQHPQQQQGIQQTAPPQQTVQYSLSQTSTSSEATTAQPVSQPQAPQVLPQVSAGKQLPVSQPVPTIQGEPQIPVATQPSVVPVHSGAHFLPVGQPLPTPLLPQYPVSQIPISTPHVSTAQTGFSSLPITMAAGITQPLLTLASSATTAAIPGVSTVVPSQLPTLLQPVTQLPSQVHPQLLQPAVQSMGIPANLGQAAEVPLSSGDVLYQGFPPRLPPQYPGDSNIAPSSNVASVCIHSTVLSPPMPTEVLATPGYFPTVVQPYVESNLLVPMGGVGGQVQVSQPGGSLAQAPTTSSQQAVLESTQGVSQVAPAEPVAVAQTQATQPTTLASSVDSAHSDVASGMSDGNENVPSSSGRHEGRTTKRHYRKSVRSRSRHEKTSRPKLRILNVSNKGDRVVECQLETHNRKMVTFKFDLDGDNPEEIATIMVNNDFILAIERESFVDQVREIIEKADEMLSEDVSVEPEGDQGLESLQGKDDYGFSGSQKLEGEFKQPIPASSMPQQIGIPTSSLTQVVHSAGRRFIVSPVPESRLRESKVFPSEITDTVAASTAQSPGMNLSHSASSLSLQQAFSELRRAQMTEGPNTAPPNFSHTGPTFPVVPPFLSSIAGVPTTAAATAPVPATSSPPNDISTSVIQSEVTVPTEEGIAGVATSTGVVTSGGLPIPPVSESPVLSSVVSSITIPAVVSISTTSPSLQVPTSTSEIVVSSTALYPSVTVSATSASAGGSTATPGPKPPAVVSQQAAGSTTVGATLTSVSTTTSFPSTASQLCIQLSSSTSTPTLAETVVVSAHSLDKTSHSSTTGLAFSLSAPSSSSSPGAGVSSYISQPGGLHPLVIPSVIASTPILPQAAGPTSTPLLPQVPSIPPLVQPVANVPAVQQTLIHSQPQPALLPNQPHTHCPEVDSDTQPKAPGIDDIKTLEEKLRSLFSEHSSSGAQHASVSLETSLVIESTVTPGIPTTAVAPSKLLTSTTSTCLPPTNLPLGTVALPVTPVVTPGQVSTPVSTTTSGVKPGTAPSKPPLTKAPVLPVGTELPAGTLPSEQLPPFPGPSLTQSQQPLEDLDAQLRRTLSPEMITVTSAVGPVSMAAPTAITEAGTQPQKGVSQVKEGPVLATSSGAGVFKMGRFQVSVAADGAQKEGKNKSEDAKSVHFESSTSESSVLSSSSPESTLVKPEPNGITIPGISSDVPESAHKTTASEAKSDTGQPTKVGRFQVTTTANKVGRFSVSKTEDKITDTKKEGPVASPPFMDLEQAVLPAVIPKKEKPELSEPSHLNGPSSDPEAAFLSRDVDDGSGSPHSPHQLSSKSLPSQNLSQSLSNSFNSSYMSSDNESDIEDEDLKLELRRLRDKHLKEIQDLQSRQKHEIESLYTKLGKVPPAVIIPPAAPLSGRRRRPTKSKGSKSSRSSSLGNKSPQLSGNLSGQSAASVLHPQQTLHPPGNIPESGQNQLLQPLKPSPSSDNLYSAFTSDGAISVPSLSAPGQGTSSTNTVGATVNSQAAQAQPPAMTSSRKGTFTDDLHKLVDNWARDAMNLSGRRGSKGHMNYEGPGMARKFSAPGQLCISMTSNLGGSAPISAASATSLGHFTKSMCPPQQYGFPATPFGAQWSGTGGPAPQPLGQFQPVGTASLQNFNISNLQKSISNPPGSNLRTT
Chain of various kinases (Homo sapiens, UniProt Q9NYL2) (Q9NYL2 whole entry): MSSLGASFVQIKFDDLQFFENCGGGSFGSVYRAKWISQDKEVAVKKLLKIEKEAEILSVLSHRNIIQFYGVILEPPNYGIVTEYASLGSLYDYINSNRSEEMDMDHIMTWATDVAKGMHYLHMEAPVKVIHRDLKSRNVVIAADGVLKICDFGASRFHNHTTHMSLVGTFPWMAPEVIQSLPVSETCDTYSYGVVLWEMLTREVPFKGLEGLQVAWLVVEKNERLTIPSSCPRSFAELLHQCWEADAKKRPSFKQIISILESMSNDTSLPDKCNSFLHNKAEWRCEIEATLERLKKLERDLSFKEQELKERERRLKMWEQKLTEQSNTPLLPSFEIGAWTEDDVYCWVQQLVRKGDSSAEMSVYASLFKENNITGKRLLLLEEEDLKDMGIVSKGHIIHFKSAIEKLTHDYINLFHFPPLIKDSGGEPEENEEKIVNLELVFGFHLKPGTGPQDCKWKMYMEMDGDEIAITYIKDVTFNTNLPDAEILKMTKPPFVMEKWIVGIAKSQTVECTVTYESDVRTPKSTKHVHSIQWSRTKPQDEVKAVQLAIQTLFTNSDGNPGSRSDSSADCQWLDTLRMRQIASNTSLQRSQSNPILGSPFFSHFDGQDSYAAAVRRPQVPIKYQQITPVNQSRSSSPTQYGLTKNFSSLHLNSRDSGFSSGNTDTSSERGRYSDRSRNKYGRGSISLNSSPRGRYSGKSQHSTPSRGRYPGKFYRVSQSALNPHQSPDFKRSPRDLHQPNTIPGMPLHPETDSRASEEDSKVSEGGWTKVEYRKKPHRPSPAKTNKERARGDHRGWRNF
Chain of various kinases (Homo sapiens, UniProt P45983) (P45983 whole entry): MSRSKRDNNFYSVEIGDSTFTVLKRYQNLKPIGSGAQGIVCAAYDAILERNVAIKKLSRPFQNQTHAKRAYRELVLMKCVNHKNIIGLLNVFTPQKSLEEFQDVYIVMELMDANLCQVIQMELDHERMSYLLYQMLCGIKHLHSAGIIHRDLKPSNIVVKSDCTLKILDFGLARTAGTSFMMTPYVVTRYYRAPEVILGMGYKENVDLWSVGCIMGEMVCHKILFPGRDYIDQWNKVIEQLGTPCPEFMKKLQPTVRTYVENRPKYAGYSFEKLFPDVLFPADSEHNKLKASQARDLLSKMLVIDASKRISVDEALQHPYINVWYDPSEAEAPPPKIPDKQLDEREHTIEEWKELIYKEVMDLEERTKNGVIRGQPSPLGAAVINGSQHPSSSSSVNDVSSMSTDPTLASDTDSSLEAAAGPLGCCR

## COc1ccc2c(c1)[C@]1(C[C@H]1c1ccc3c(/C=C/c4ccc(CN5C[C@@H](C)O[C@@H](C)C5)cc4)n[nH]c3c1)C(=O)N2 [CFI-400945]
[1]
  % Inhibition: 5% and 8%
[2]
  % Inhibition: 57% and 65%
[3]
  % Inhibition Average: 3%
  % Inhibition Duplicate #1: 4%
  % Inhibition Duplicate #2: 2%
[4]
  % Inhibition: 3% and 7%
[5]
  % Inhibition: 8%
[6]
  % Inhibition: 0% and 7%
[7]
  % Inhibition: 6% and 3%
[8]
  % Inhibition: 6%
[9]
  % Inhibition: 55% and 57%
[10]
  % Inhibition Average: -4%
  % Inhibition Duplicate #1: -6%
  % Inhibition Duplicate #2: -3%
[11]
  % Inhibition Average: 1%
  % Inhibition Duplicate #1: -2%
  % Inhibition Duplicate #2: 5%
[12]
  % Inhibition: 0% and -1%
[13]
  % Inhibition: 9% and 8%
[14]
  % Inhibition: 6%
[15]
  % Inhibition Average: 12%
  % Inhibition Duplicate #1: 13%
  % Inhibition Duplicate #2: 11%
[16]
  % Inhibition Average: 50%
  % Inhibition Duplicate #1: 48%
  % Inhibition Duplicate #2: 51%
[17]
  % Inhibition: 11% and 8%
[18]
  % Inhibition: 16% and 15%
[19]
  % Inhibition: 44% and 36%
[20]
  % Inhibition Average: 11%
  % Inhibition Duplicate #1: 14%
  % Inhibition Duplicate #2: 8%
[21]
  % Inhibition Average: 4%
  % Inhibition Duplicate #1: -1%
  % Inhibition Duplicate #2: 9%
[22]
  % Inhibition Average: -1%
  % Inhibition Duplicate #1: -1%
  % Inhibition Duplicate #2: -1%
[23]
  % Inhibition Average: 16%
  % Inhibition Duplicate #1: 10%
  % Inhibition Duplicate #2: 21%

— PMC5762315, “Inhibition of polo-like kinase 4 (PLK4): a new therapeutic option for rhabdoid tumors and pediatric medulloblastoma” (Oncotarget, 2017)
